The text below walks through data of PubChem BioAssay (NCI).

Structures are written as SMILES.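 Test compounds were applied to cells in 96-well plates for 48 hours at 5 doses. TGI denotes the concentration required for complete inhibition of growth.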

Some test systems named below: SF-268 CNS; HCT-116 colon; RXF 393 renal; NCI-H460 lung; OVCAR-5 ovarian; MDA-MB-435; MALME-3M melanoma; KM12 colon; IGROV1 ovarian; CAKI-1 renal; OVCAR-4 ovarian; UO-31 renal; MDA-MB-231 breast; UACC-62 melanoma; MDA-N.
Common to all, as to experiment: DTP human tumour cell line panel, 48 h

With `CS(=O)(=O)OCCN(CCOS(C)(=O)=O)c1ccc(C=Nc2cccc(Cl)c2)cc1`, the TGI in the assay with SF-268 CNS is more than 100 µM; in the assay on HCT-116 colon, more than 100 µM; in the assay with RXF 393 renal it was more than 100 µM; with NCI-H460 lung, more than 33.4 µM; with OVCAR-5 ovarian, 17.7 µM; in the assay with MDA-MB-435 it was 30.3 µM. The TGI in the assay with MALME-3M melanoma was 33.2 µM; in the assay with KM12 colon it was more than 100 µM; with IGROV1 ovarian it was more than 87.8 µM; with CAKI-1 renal, 1.56 µM; in the assay on OVCAR-4 ovarian, more than 63.6 µM; in the assay on UO-31 renal, more than 100 µM. Also, the TGI with MDA-MB-231 breast was 48.6 µM; with UACC-62 melanoma it was 15.6 µM.

For the molecule `O=C(O)Cc1ccc(Nc2nc3cc(C(F)(F)F)ccc3nc2C(=O)O)cc1`, the TGI in the assay on SF-268 CNS, in the assay with HCT-116 colon, in the assay with RXF 393 renal, in the assay with NCI-H460 lung, in the assay on OVCAR-5 ovarian and in the assay with MDA-MB-435 was more than 100 µM throughout. Moreover, the total growth inhibition concentration (TGI) in the assay on MALME-3M melanoma, with MDA-N, in the assay with KM12 colon, in the assay on IGROV1 ovarian, in the assay with CAKI-1 renal and in the assay on OVCAR-4 ovarian was more than 100 µM throughout. Further, the concentration for total growth inhibition (TGI) in the assay with UO-31 renal and with UACC-62 melanoma was more than 100 µM throughout.

For `CC(C)(C)OC(=O)N(CCCCNC(=O)OCc1ccccc1)CCCNC(=O)OCc1ccccc1`, the TGI with SF-268 CNS, with HCT-116 colon, in the assay on RXF 393 renal, with NCI-H460 lung, in the assay on OVCAR-5 ovarian and in the assay on MDA-MB-435 was more than 100 µM throughout. The total growth inhibition concentration (TGI) in the assay on KM12 colon, in the assay with IGROV1 ovarian, in the assay with OVCAR-4 ovarian, in the assay with MDA-MB-231 breast and with UACC-62 melanoma was more than 100 µM in each case.

Take `CCN(CC)CCCNc1ccc2nc(C)n3c4ccc(O)cc4c(=O)c1c23`: the TGI in the assay on SF-268 CNS is 17.2 µM; with HCT-116 colon it was 11.1 µM; in the assay on RXF 393 renal, 15 µM; in the assay with NCI-H460 lung, 12.1 µM; with OVCAR-5 ovarian it was 20.2 µM; in the assay on MDA-MB-435, 22 µM. For the same molecule, the TGI worked out at 22.8 µM with MALME-3M melanoma; 20.6 µM in the assay with MDA-N; 17.4 µM in the assay on KM12 colon; 9.79 µM in the assay with IGROV1 ovarian; 23.6 µM in the assay with CAKI-1 renal; 20.1 µM in the assay with OVCAR-4 ovarian. The figures for the TGI with UO-31 renal and in the assay with UACC-62 melanoma were 19.3 µM and 23.5 µM, respectively.

For `O=C(/C=C/c1ccccc1)CSc1ncn[nH]1`, the TGI in the assay on SF-268 CNS, with HCT-116 colon, in the assay on RXF 393 renal, in the assay with NCI-H460 lung, in the assay on OVCAR-5 ovarian and in the assay on MALME-3M melanoma was more than 100 µM throughout. For the same molecule, the total growth inhibition concentration (TGI) in the assay on MDA-N, in the assay with KM12 colon, in the assay with IGROV1 ovarian, with CAKI-1 renal, with OVCAR-4 ovarian and in the assay with UO-31 renal was more than 100 µM in each case. Besides, the concentration for total growth inhibition (TGI) in the assay with UACC-62 melanoma was more than 100 µM.

For `CC(C)CCC[C@@H](C)[C@H]1CC[C@H]2[C@@H]3CC[C@H]4C[C@@H](CCC=C(c5cc(Cl)c(O)c(C(=O)O)c5)c5cc(Cl)c(O)c(C(=O)O)c5)CC[C@]4(C)[C@H]3CC[C@]12C`, the total growth inhibition concentration (TGI) with SF-268 CNS, with HCT-116 colon, in the assay with RXF 393 renal, in the assay on NCI-H460 lung, in the assay with OVCAR-5 ovarian and in the assay on MDA-MB-435 was more than 100 µM each time. For the same molecule, the TGI in the assay on MALME-3M melanoma, in the assay with KM12 colon, in the assay on IGROV1 ovarian, in the assay with CAKI-1 renal, with OVCAR-4 ovarian and with UO-31 renal was more than 100 µM each time. Moreover, the TGI with MDA-MB-231 breast and with UACC-62 melanoma was more than 100 µM throughout.

Consider `CN(C(=O)C12C3C4C5C3C1(C(=O)C13C6C7C8C6C1C8C73)C5C42)C(C)(C)C` (stereo not drawn), for which the total growth inhibition concentration (TGI) was more than 50 µM in the assay on SF-268 CNS; 18.5 µM in the assay on HCT-116 colon; more than 50 µM in the assay on RXF 393 renal; more than 50 µM with NCI-H460 lung; more than 50 µM in the assay on OVCAR-5 ovarian; more than 50 µM in the assay with MALME-3M melanoma. Further, the TGI in the assay with KM12 colon, with IGROV1 ovarian, in the assay with CAKI-1 renal, with OVCAR-4 ovarian, with UO-31 renal and with UACC-62 melanoma was more than 50 µM throughout.

In the case of `CN(C(=O)Cc1ccccc1)n1cnn(CC(=O)OC(C)(C)C)c1=S`, the total growth inhibition concentration (TGI) with SF-268 CNS, in the assay on HCT-116 colon, in the assay with NCI-H460 lung, in the assay with OVCAR-5 ovarian, in the assay on MDA-MB-435 and with MALME-3M melanoma was more than 10 µM each time. For the same molecule, the TGI with MDA-N, in the assay on KM12 colon, in the assay with IGROV1 ovarian, with CAKI-1 renal, with OVCAR-4 ovarian and in the assay on UO-31 renal was more than 10 µM throughout. Also, the concentration for total growth inhibition (TGI) in the assay on MDA-MB-231 breast and in the assay with UACC-62 melanoma was more than 10 µM in each case.

For `CSc1ccc(-c2cc(-c3nc4ccccc4[nH]3)no2)cc1`, the TGI with SF-268 CNS is more than 100 µM; with HCT-116 colon, more than 100 µM; in the assay with NCI-H460 lung, 45.7 µM; in the assay with OVCAR-5 ovarian it was more than 100 µM; in the assay with MDA-MB-435 it was 44.7 µM; with MALME-3M melanoma, more than 100 µM. In addition, the concentration for total growth inhibition (TGI) is more than 100 µM with MDA-N; 68.5 µM in the assay on KM12 colon; more than 100 µM in the assay on IGROV1 ovarian; 70 µM in the assay with CAKI-1 renal; 19.3 µM with OVCAR-4 ovarian; 43.5 µM with UO-31 renal. Besides, the results for the TGI in the assay with MDA-MB-231 breast and in the assay with UACC-62 melanoma were more than 100 µM and 39.1 µM, respectively.

With `OC1(c2ccc(-c3ccccc3)cc2)c2ccccc2C2=NCCN21` (stereo not drawn), the TGI with SF-268 CNS is more than 100 µM; with HCT-116 colon, more than 100 µM; in the assay with NCI-H460 lung it was more than 100 µM; in the assay on MDA-MB-435, more than 100 µM; in the assay with MDA-N, more than 100 µM; with KM12 colon it was 54.4 µM. The total growth inhibition concentration (TGI) in the assay on CAKI-1 renal was more than 100 µM; with OVCAR-4 ovarian it was more than 100 µM; in the assay on UO-31 renal, more than 100 µM; with MDA-MB-231 breast, more than 100 µM; in the assay on UACC-62 melanoma it was 53.1 µM.

For the molecule `N#CN/C(N)=N/C/N=C(\N)NC#N`, the TGI with SF-268 CNS, in the assay on HCT-116 colon, with RXF 393 renal, in the assay on NCI-H460 lung, in the assay with OVCAR-5 ovarian and in the assay on MALME-3M melanoma was more than 100 µM throughout. Moreover, the TGI in the assay on KM12 colon, with IGROV1 ovarian, with CAKI-1 renal, with OVCAR-4 ovarian, in the assay on UO-31 renal and in the assay on UACC-62 melanoma was more than 100 µM throughout.
